Measurements reported in PubChem BioAssay AID651971 (The Scripps Research Institute Molecular Screening Center, 2013).
The source made the active and inactive calls. The rule behind the calls is not given here.

Molecular target: methionyl-tRNA synthetase (Trypanosoma brucei brucei) (UniProt Q38C91)
Experiment: inhibition of trypanosome methionyl-tRNA synthetase – biochemical, luminescence, dose response (AID 651971)
Settings: recombinant T. brucei MetRS, luminescence (ATP consumption)

methionyl-tRNA synthetase (Trypanosoma brucei brucei), sequence (Q38C91 1-773): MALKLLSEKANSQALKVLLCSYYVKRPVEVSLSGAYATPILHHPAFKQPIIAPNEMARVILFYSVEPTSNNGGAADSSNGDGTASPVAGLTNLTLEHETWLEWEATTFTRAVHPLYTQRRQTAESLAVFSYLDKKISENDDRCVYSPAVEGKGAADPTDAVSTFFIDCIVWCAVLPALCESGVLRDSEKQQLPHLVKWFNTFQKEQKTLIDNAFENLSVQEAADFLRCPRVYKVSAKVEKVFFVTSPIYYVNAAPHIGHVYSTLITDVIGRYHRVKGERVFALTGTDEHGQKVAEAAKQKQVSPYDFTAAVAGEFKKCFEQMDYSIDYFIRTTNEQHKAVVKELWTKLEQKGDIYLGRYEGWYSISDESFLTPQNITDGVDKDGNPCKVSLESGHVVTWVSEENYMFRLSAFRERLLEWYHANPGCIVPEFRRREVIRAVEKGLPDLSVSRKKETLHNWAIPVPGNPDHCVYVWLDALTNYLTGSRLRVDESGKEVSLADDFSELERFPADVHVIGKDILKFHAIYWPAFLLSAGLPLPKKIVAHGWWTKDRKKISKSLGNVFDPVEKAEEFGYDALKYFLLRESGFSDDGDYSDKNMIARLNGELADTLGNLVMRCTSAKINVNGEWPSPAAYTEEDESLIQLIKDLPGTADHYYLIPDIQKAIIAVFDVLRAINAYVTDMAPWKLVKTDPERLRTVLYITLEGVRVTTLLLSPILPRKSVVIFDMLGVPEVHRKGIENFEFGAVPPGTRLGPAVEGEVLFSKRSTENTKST

IC50: > 119 µM (inactive)
SMILES: Cc1ccc(C(=O)Nn2c(O)c(C=C3N=c4ccccc4=N3)sc2=S)cc1
